# Measurements published in patent publication US20030153073A1, “Expansion of T cells in vitro and expanded T cell populations” (priority 2001, published 2003).
# Legend:
# RAJI = assay: 51Cr cytotoxicity assay, Vα24+ T cell effectors, RAJI targets; format: cell-based, human; conditions: data not shown
# Description: (§1) The cell lines U937 (histiocytic lymphoma), RAJI (Burkitt's B cell lymphoma), and K562 (erythroleukemia) were originally obtained from the American Type Culture Collection, ATCC (Mannassas, Va.) and were a gift from Dr. D. Green (La Jolla Institutive for Allergy and Immunology (LIAI), San Diego, Calif.). The T cell leukemia Jurkat cell line was obtained from Nobuaki Takahashi (Kirin Brewery Co., Ltd., Gunma, Japan). Cells were maintained in RPMI-1640 with 10% fetal calf serum (GibcoBRL), penicillin, streptomycin, 2-mercaptoethanol, and Hepes as described previously. For cytotoxic assays, cells were cultured at 1×10^5/ml with 50 ng/ml KRN7000, β-GalCer, or 0.5% DMSO (vehicle) for 16 hours prior to assay.
# (§2) ^51Cr cytotoxicity assays were performed as follows. A total of 5×10^3 51Cr-labeled cells (Na2^51CrO3) (ICN Biomedicals, Inc.) from the U937, K562, or Jurkat cell line as the target cells and various numbers of effector Vα24^+ T cells in 0.2 ml of culture medium were seeded into round-bottom microtiter wells. The culture was incubated at 37° C. in an atmosphere containing 6% CO2 for 5 h, and 0.1 ml of supernatant was collected from each well. The percentage of specific ^51Cr release was calculated as follows: [(cpm experimental−cpm spontaneous release)/(cpm maximal release−cpm spontaneous release)]×100.
# Jurkat tumor cells = assay: 51Cr cytotoxicity assay, Vα24+ T cell effectors, Jurkat targets; format: cell-based, human; conditions: targets pulsed 16 hours with 50 ng/ml glycolipid (FIG. 4)
# Description: as §1
# as §2, with “release)]×100. […]” for “release)]×100.”
# K562 = assay: 51Cr cytotoxicity assay, Vα24+ T cell effectors, K562 targets; format: cell-based, human; conditions: targets pre-pulsed (FIG. 4)
# Description: as §1, §2
# PBMC = assay: Proliferation of PBMCs, [3H]-thymidine incorporation; format: cell-based, human; conditions: donor 9 PBMC, 5 days, tritiated thymidine incorporation
# [1] = test system: CD3^+hCD1d/KRN7000 Tetramer^+ T cells; assay: Expansion of CD3+ hCD1d/KRN7000 Tetramer+ T cells in PBMC culture, 7 days; format: cell-based, human
# Molt-4 = assay: 51Cr cytotoxicity assay, Vα24+ T cell effectors, Molt-4 targets; format: cell-based, human; conditions: data not shown
# U937 = assay: 51Cr cytotoxicity assay, Vα24+ T cell effectors, U937 targets; format: cell-based, human; conditions: targets pulsed 16 hours with 50 ng/ml glycolipid (FIG. 4)
# Description: as §1, §2
Molecule,"increase in Vα24/Vβ11 cells with autologous donor serum versus commercial pooled human serum (Vα24^+Vβ11^+ T cells; 3 donors, KRN7000 and rhIL-2, 7 days)","Percentage of Vα24/Vβ11 cells (Vα24^+Vβ11^+ T cells; donor 9 PBMC, 7 days, flow cytometry)","Number of Vα24Vβ11 cells (Vα24^+Vβ11^+ T cells; donor 9 PBMC, day 7, cell recovery × percentage)",killing of RAJI target cells by expanded Vα24^+ T cells (RAJI),lysis of glycolipid-pulsed Jurkat target cells by CD4^+ and CD4^− expanded Vα24^+ T cells (Jurkat tumor cells),lysis of glycolipid-pulsed K562 target cells by expanded Vα24^+ T cells (K562),"Proliferation, cpm (PBMC)","Proliferation, cpm (PBMC; listed as KRN7000 only)","% CD^3+ Tetramer^+ cells ([1]; PBMC 1×10^6/ml, 7 days, KRN7000 100 ng/ml, rhIL-2 10 ng/ml, rhIL-15 100 ng/ml, flow cytometry)","number of Tetramer^+ cells ([1]; percentage × cells recovered, day 7)",killing of Molt-4 target cells by expanded Vα24^+ T cells (Molt-4),lysis of glycolipid-pulsed U937 target cells by CD4^+ and CD4^− expanded Vα24^+ T cells (U937)
"CCCCCCCCCCCCCCCCCCCCCCCCCC(=O)N[C@@H](CO[C@H]1O[C@H](CO)[C@H](O)[C@H](O)[C@H]1O)[C@H](O)[C@H](O)CCCCCCCCCCCCCC [KRN7000, (2S,3S,4R)-1-O-(alpha-D-Galactopyranosyl)-N-hexacosanoyl-2-amino-1,3,4-octadecanetriol]",up to 7 times,0.25%,"2,125",not killed,lysed,not lysed,little or no proliferation,"1,145 cpm",0.03%,312,not killed,lysed
β-galactosylceramide [β-GalCer],,,,,not lysed,,,,,,,not lysed
